Assay results from patent publication US9126997B1, “Synergistic effect of glucocorticoid receptor agonists in combination with proteosome inhibitors for treating leukemia and myeloma” (Northwestern University, priority 2010, dated 2015).

Tests used:
[1] = system: glucocorticoid receptor (GR); assay: Function (transactivation / transrepression) of GR accumulated after cell pre-treatment with BZ in the presence of GR ligands; format: cell-based
From the text: (§1) Further, GR protein expression can be increased both in the absence and in the presence of […] such as glucocorticoids and SEGRA. Importantly, in the presence of GR ligands, cell pre-treatment with BZ results in the accumulation of GR whose function is defined by the ligand. […] Thus, SEGRA+BZ administered in combination will maximize the anti-inflammatory and anti-proliferative effects of SEGRA therapy that are based on GR transrepression, and at the same time will not induce metabolic side effects typical for glucocorticoids that are based on GR transactivation.

[2] = system: glucocorticoid receptor (GR); assay: GR protein levels in cells after treatment with proteasome inhibitor; format: cell-based, human
From the text: as §1

SMILES: CC(C)C[C@H](NC(=O)[C@H](Cc1ccccc1)NC(=O)c1cnccn1)B(O)O [Bortezomib]
- GR accumulation and function ([1]; in the presence of SEGRA): accumulation of GR whose activity is shifted towards transrepression
- GR accumulation and function ([1]; in the presence of glucocorticoids): accumulation of GR that is proficient in both transactivation and transrepression
- endogenous GR protein levels ([2]; human epithelial and lymphoid cell lines and primary cell cultures): strongly increases endogenous GR protein levels
- GR expression in GR-negative cells ([2]; some glucocorticoid-resistant GR-negative cells): re-expression of GR
